# Measurements from article PMC11847541, “Liver fatty acid binding protein FABP1 transfers substrates to cytochrome P450 4A11 for catalysis” (The Journal of Biological Chemistry, 2025).
# Several values for one entry are separate records, joined by “and”; a condition that tells them apart may be missing. Identical values can stand only once. Like-named read-outs stand apart in the source and are kept apart here.
# Molecular target: T1, FABP1 (Homo sapiens, UniProt P07148)
# T1 construct: GST (N, cleaved yes); made in house; host or cells: Escherichia coli DH5α
# T1 sequence (P07148 with tags, fused parts or gaps): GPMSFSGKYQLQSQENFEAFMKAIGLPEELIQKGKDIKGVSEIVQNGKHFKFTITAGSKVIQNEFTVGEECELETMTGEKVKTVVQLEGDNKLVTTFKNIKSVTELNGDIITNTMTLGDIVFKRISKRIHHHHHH
# Experiment: DAUDA displacement fluorescence titrations of DAUDA–FABP1 with fatty acids, fit in KinTek Explorer
# Format: binding
# Description: The FABP–DAUDA system was used to screen saturated fatty acids (C12 to C18) for binding to FABP, and the Kd values were estimated in competition with the fluorophore (using its known Kd) with the kinetic modeling software KinTek Explorer. The general model is shown in Fig. 5A, where the substrate is competed against the fluorescent DAUDA–FABP1 complex for binding, yielding a ternary DAUDA–FABP1–substrate complex that is accompanied by an attenuation in fluorescence.
# Figure 5 Fluorescence titrations of DAUDA–FABP1 with fatty acids (“forward” titrations).A, model of all binding equilibria accounted for in the DAUDA displacement assays. In the fluorescence assays (λex = 335 nm), DAUDA (D) binds to FABP1 (F) to form a fluorescent (indicated with yellow flash) complex (FD), with which a lipid (S) is then competed against for binding. The binding of S attenuates the fluorescence (denoted with a smaller yellow flash) and forms a ternary complex (FDS). High concentrations of S may completely displace D to form FSS, a spectroscopically silent complex. Using this method, fluorescence titrations were carried out with the fatty acids (B) laurate, (C) myristate, (D) palmitate, (E) 16-hydroxypalmitate, and (F) stearate. Fluorescence at the emission maximum (482 nm) was monitored (as in Fig. 4) and normalized to the starting fluorescence (i.e., the FD complex prior to the addition of S). Each data point corresponds to one independent replicate. DAUDA, 11-dansylaminoundecanoic acid; FABP1, fatty acid binding protein.
# For the titrations with lipids, solutions of FABP1 (0.5 μM) and DAUDA (0.25 μM) were prepared such that the fluorescent species was not present in excess ([75]). A baseline was recorded with phosphate buffer, and a starting (basis) spectrum was recorded of the FABP–DAUDA complex (1 ml). The lipid solutions were gradually added to the cuvette with gentle mixing (pipetting up and down ∼7× with a pipette tip), and spectra were recorded (Fig. S12A). Control titrations were also performed the same day with solvent alone (Fig. S12B) as a normalizing factor for the lipid titrations as fluorescence attenuation was also observed to a much lesser degree as a solvent effect (Fig. S12C, D). […] The data were processed such that within the lipid titration and the solvent titration, the F482 values were normalized to the starting value (the initial FABP1–DAUDA complex with nothing added, set to 100%). The relative fluorescence of the lipid titration was then normalized to the relative fluorescence of the solvent titration to adjust for fluorescence attenuation observed in the solvent titration (presumably from altering the fluorophore environment). Thus, the data were processed according to y=(F482/F482(initial))lipid/(F482/F482(initial))solvent , and the resulting values were plotted as a function of lipid concentration (Fig. S12E). The curve was imported into KinTek Explorer ([76]) and was fit to a kinetic model (Fig. S13) to determine the Kd values (Table 1). Within the KinTek software, all fluorescent species required fluorescence scaling factors to convert signal to concentration. Scaling factors for the FABP–DAUDA complex, FABP–DAUDA–lipid complex, and DAUDA alone were 460, 92, and 8, respectively.
# Figure S12. Data processing for FABP1 titration with palmitate. Fluorescence spectrum of increasing additions of (A) palmitate (0-2 µM, added in C2H5OH) and (B) C2H5OH to a mixture of DAUDA (0.25 µM) and FABP1 (0.5 µM), performed as described in the Experimental Methods (see “Titrations of FABP1 with lipids, DAUDA”). C, fluorescence values at 482 nm (F482) from the titrations presented in parts A and B are normalized to the starting values (DAUDA-FABP1 complex, no volume added). Data are reported as a function of volume of titrant added to the cuvette (black, C2H5OH alone; red, palmitate in C2H5OH). […]
# [1] = lipid binding to DAUDA-bound FABP1 (DAUDA displacement), read-out: Kd, FD + S ↔ FDS
# [2] = lipid binding to apo-FABP1, estimated via kinetic modeling, read-out: Kd, F + S ↔ FS
# [3] = lipid binding to ternary complex FDS (full displacement of DAUDA), low-affinity site, read-out: Kd, FDS + S ↔ FSS + D
structure (smiles),measurement,setting,value
"CCCCCCCCCCCCCCCC(=O)O [Palmitate (C16), palmitate]",affinity difference between the two FABP1 binding sites,,> 250 fold
same,koff of palmitate from FABP1 relative to binding of palmitate (1–10 μM) to P450 4A11,faster,10–100 fold
same,remaining activity at 0.01 µM,"lipid 0.01 µM, FABP1 0.5 µM, DAUDA 0.25 µM, F482 normalized, read-out: % Fluorescence",91%
same,remaining activity at 0.025 µM,"lipid 0.025 µM, FABP1 0.5 µM, DAUDA 0.25 µM, F482 normalized",85.5%
same,remaining activity at 0.05 µM,"lipid 0.05 µM, FABP1 0.5 µM, DAUDA 0.25 µM, F482 normalized",84.5%
same,remaining activity at 0.075 µM,"lipid 0.075 µM, FABP1 0.5 µM, DAUDA 0.25 µM, F482 normalized",79.1%
same,remaining activity at 0.1 µM,"lipid 0.1 µM, FABP1 0.5 µM, DAUDA 0.25 µM, F482 normalized, read-out: % Fluorescence",74.5%
same,remaining activity at 0.15 µM,"lipid 0.15 µM, FABP1 0.5 µM, DAUDA 0.25 µM, F482 normalized",67.2%
same,remaining activity at 0.2 µM,"lipid 0.2 µM, FABP1 0.5 µM, DAUDA 0.25 µM, F482 normalized",60.3%
same,remaining activity at 0.25 µM,"lipid 0.25 µM, FABP1 0.5 µM, DAUDA 0.25 µM, F482 normalized",55.8%
same,remaining activity at 0.35 µM,"lipid 0.35 µM, FABP1 0.5 µM, DAUDA 0.25 µM, F482 normalized",42.4%
same,remaining activity at 0.45 µM,"lipid 0.45 µM, FABP1 0.5 µM, DAUDA 0.25 µM, F482 normalized",36.3%
same,remaining activity at 0.6 µM,"lipid 0.6 µM, FABP1 0.5 µM, DAUDA 0.25 µM, F482 normalized, read-out: % Fluorescence",30.3%
same,remaining activity at 0.9 µM,"lipid 0.9 µM, FABP1 0.5 µM, DAUDA 0.25 µM, F482 normalized",21.6%
same,remaining activity at 1.15 µM,"lipid 1.15 µM, FABP1 0.5 µM, DAUDA 0.25 µM, F482 normalized",20.5%
same,remaining activity at 1.4 µM,"lipid 1.4 µM, FABP1 0.5 µM, DAUDA 0.25 µM, F482 normalized",19.4%
same,remaining activity at 1.9 µM,"lipid 1.9 µM, FABP1 0.5 µM, DAUDA 0.25 µM, F482 normalized",20.4%
same,koff,"lipid (S) binding to apo-FABP1 (F), kinetic modeling, on-rate 9.0 × 10^7 M^−1 s^−1, read-out: koff, F + S ↔ FS",4.1 s⁻¹
same,Kd,[1],0.01 µM
same,koff,"lipid binding to DAUDA-bound FABP1 (FD), on-rate 2.3 × 10^7 M^−1 s^−1, read-out: koff, FD + S ↔ FDS",0.24 s⁻¹
same,Kd,[2],0.046 µM
same,Kd,[3],10 µM
same,koff,"lipid binding to ternary complex FDS (full displacement of DAUDA), read-out: koff, FDS + S ↔ FSS + D",240 s⁻¹
same,tighter binding of palmitate to FABP1 than to P450 4A11,ratio of Kd values,> 100 fold and 100 fold
"O=C(O)CCCCCCCCCCCCCCCO [16-OH Palmitate (C16), 16-hydroxypalmitate]","koff, F + S ↔ FS","lipid (S) binding to apo-FABP1 (F), kinetic modeling, on-rate 9.0 × 10^7 M^−1 s^−1",47 s⁻¹
same,Kd,[1],15 µM
same,"koff, FD + S ↔ FDS","lipid binding to DAUDA-bound FABP1 (FD), on-rate 2.3 × 10^7 M^−1 s^−1",350 s⁻¹
same,Kd,[2],0.52 µM
same,"koff, FDS + S ↔ FSS + D",lipid binding to ternary complex FDS (full displacement of DAUDA),1500 s⁻¹
same,Kd,[3],63 µM
